The record followed here is US20060148858A1, “1, 2-Azole derivatives with hypoglycemic and hypolipidemic activity” (priority 2002, published 2006).

Series [1] concerns the target T1, PPARγ-RXRα heterodimer (Homo sapiens, UniProt P37231).
T1 construct: expressed in transfected cells; host or cells: CHO-K1
T1 sequence (P37231 1-477 isoform P37231-2): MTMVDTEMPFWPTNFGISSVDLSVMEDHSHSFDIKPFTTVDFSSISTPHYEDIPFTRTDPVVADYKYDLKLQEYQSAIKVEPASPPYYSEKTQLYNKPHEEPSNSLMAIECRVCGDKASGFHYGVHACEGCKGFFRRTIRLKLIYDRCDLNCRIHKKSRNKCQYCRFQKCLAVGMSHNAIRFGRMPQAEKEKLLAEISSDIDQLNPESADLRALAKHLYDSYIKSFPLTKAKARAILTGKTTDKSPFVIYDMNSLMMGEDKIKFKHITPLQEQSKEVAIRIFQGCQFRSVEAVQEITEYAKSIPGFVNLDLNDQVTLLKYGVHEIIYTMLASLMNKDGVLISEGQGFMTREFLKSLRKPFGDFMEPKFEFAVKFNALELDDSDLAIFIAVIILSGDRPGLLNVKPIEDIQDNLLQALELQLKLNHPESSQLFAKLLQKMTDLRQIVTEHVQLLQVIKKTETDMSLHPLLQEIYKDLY
T1 sequence (P19793 1-462 partner): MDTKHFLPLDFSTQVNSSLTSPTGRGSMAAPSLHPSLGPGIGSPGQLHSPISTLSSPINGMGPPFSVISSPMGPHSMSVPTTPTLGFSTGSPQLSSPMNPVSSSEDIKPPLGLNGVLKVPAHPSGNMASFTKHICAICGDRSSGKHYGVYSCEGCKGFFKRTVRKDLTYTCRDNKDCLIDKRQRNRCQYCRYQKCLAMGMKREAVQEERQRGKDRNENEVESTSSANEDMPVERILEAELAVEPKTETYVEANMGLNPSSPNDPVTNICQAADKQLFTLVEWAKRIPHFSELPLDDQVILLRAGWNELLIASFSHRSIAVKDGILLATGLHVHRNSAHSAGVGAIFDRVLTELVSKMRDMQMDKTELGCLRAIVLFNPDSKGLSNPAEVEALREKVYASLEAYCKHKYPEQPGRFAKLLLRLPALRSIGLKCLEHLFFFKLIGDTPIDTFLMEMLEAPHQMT
The series can be described thus: PPARγ-RXRα heterodimer ligand activity, luciferase reporter in PPARγ:RXRα:4ERPP/CHO-K1 cells (Test Example 3). The series is classed as cell-based. The following applies: 18-48 hours, concentration for 50% of the maximum fold induction. As for the experimental part:
A PPARγ: RXRα: 4ERPP/CHO-K1 cells obtained in Reference Example 8a described later were cultured in HAM F12 medium (produced by Life Technologies, Inc., USA) containing 10% Fetal bovine serum (produced by Life Technologies, Inc., USA) and then inoculated to a 96-well white plate (produced by Corning Costar Corporation, USA) at the density of 2×10^4 cells/well, and cultured in a CO2 gas incubator at 37° C. overnight.
After removing the medium from 96 well white plate, 80 μl of HAM F12 medium containing 0.1% fatty acid-free bovine serum albumin (BSA) and 20 μl of test compound were added, which was cultured in a CO2 gas incubator at 37° C. for 18-48 hours. After removing the medium, 40 μl of PIKKAGENE 7.5 (produced by Wako Pure Chemical Industries, Ltd.) diluted twice with HBSS (HANKS' BALANCED SALT SOLUTION)(produced by BIO WHITTAKER Inc., USA), was added. After stirring, the luciferase activity was determined using 1420 ARVO Multilabel Counter (produced by PerkinElmer Inc., USA).
A fold induction was calculated based on the luciferase activity of each test compound by taking the luciferase activity in the non-treatment group as 1. The values of the test compound concentration and the fold induction were analyzed using PRISM (produced by GraphPad Software Inc. USA) to calculate the EC50 values, the effective concentration of a test compound for 50% of the maximum fold induction.
After a CHO-K1 cell cultured in a 150 cm^2 cell culture flask (750 ml)(produced by Corning Costar Corporation, USA) containing HAM F12 medium (produced by Life Technologies, Inc., USA) supplemented with 10% Fetal Bovine Serum (produced by Life Technologies, Inc., USA) was scraped by treating with 0.5 g/L trypsin-0.2 g/L EDTA (ethylenediaminetetraacetic acid) (produced by Life Technologies, Inc., USA), the cell was washed with PBS (phosphate-buffered saline) (produced by Life Technologies, Inc., USA), centrifuged (1000 rpm, 5 minutes), and then suspended in PBS. Subsequently, a DNA was introduced into the cell under the condition shown below using GENE PULSER (produced by Bio-Rad Laboratories, USA).
Namely, to a cuvette having a 0.4 cm gap, added were 8×10^6 cells and 10 μg of plasmid pVgRXR2-hPPARγ obtained in Reference Example 7a and 10 μg of reporter plasmid pGL3-4ERPP-TK neo obtained in Reference Example 5a, which was subjected to electroporation at the voltage of 0.25 kV under the capacitance of 960 μF. Subsequently, the cell was transferred into a HAM F12 medium containing 10% Fetal Bovine Serum and cultured for 24 hours and then the cell was scraped again and centrifuged, and then suspended in HAM F12 medium containing 10% Fetal Bovine Serum supplemented with 500 μg/ml of GENETICIN (produced by Life Technologies, Inc., USA) and 250 μg/ml of ZEOCIN (produced by Invitrogen, USA). The obtained suspension was diluted to the density of 10^4 cells/ml and inoculated to a 96-well plate (produced by Corning Costar Corporation, USA), which was cultured in a CO2 gas incubator at 37° C., whereby obtaining a GENETICIN- and ZEOCIN-resistant transformant.
Subsequently, after the transformant cell line thus obtained was cultured in a 24-well plate (produced by Corning Costar Corporation, USA), selected was a cell line in which the luciferase was expressed and induced, i.e., PPARγ:RXRα:4ERPP/CHO-K1 cell by addition of 10 μM of pioglitazone hydrochloride.
(In general: A reporter such as luciferase makes a cellular process visible.)

Series [2] deals with T2, PPARδ-RXRα heterodimer (Homo sapiens, UniProt Q03181).
T2 construct: expressed in transfected cells; host or cells: COS-1
T2 sequence (Q03181 1-441): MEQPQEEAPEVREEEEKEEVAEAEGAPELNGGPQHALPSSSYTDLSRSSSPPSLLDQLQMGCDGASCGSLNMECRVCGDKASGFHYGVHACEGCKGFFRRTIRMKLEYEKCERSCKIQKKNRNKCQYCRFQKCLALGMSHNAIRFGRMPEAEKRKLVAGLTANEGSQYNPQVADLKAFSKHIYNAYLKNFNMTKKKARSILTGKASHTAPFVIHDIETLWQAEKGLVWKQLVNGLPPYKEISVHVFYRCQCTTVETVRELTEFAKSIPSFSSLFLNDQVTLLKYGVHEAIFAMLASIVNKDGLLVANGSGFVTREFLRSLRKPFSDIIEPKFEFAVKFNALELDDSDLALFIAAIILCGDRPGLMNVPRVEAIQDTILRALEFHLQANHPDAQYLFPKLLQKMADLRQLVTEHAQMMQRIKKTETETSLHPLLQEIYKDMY
T2 sequence (P19793 1-462 partner): T1 sequence (P19793 1-462 partner)
The series can be described thus: PPARδ-RXRα heterodimer ligand activity, luciferase reporter in COS-1 transformant (Test Example 4). The class given is cell-based. The following applies: COS-1 transformant (hPPARδ, hRXRα, reporter), 36-48 hours, concentration for 50% of the maximum fold induction. In outline: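 COS-1 cells transiently co-transfected with human PPARδ, human RXRα, PPRE-luciferase reporter and pRL-tk, then exposed to compound 36-48 h at 37 °C in DMEM with 0.1% fatty acid-free BSA. Luciferase read as fold induction over untreated; EC50 at 50% of maximal fold induction.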

What is called EC50 is the concentration needed to bring the measured effect to its halfway point. A lower EC50 goes with an effect from little substance. In general, melting point refers to the temperature, or range, at which the solid turns liquid.

For the compound `CCCc1nn(-c2ccc(C(F)(F)F)cn2)cc1CCCCn1cc(CCC(=O)O)c(-c2ccc(F)cc2)n1` [Example 77, 3-[3-(4-fluorophenyl)-1-(4-{3-propyl-1-[5-(trifluoromethyl)-2-pyridinyl]-1H-pyrazol-4-yl}butyl)-1H-pyrazol-4-yl]propanoic acid], the melting point lay in the range of 119 to 121 °C. In series [1], this compound yielded an EC50 of 21 nM.

With `CCCCOc1nn(-c2ccc(C(F)(F)F)cn2)cc1CCCOc1ccc(CCC(=O)O)c(OCC)c1` [Example 155, 3-[4-(3-{3-butoxy-1-[5-(trifluoromethyl)-2-pyridyl]-1H-pyrazol-4-yl}propoxy)-2-ethoxyphenyl]propanoic acid], the melting point is 102 to 103 °C. Further, in series [2], the EC50 was 3.8 nM.

For `CCCc1nn(-c2ccc(C(F)(F)F)cn2)cc1CCCOc1ccc(C(C)(C)C(=O)O)cc1` [Example 157, 2-methyl-2-[4-(3-{3-propyl-1-[5-(trifluoromethyl)-2-pyridyl]-1H-pyrazol-4-yl}propoxy)phenyl]propanoic acid], the melting point was in the range of 84 to 85 °C. The compound also displayed an EC50 in series [2] of 4.7 nM.

`CCOc1nn(-c2ccc(C(F)(F)F)cn2)cc1CCCOc1cc(CC(=O)O)cc(OC)c1` [Example 168, [5-(3-{3-ethoxy-1-[5-(trifluoromethyl)-2-pyridyl]-1H-pyrazol-4-yl}propoxy)-3-methoxyphenyl]acetic acid] came in with a melting point of 125 to 126 °C. Also, in series [2], the response was half-maximal at 1.6 nM (EC50).

`CCCc1nn(-c2ccc(C(F)(F)F)cn2)cc1CCCOc1cc(CC(=O)O)cc(OC)c1` [Example 169, [3-methoxy-5-(3-{3-propyl-1-[5-(trifluoromethyl)-2-pyridyl]-1H-pyrazol-4-yl}propoxy)phenyl]acetic acid] showed a melting point of 139 to 140 °C. Besides, the midpoint of the response in series [2], the EC50, lay at 5.7 nM.

As to `CCOc1nn(-c2ccc(C(F)(F)F)cc2)cc1CCCOc1ccccc1CC(=O)O` [Example 182, [2-(3-{3-ethoxy-1-[4-(trifluoromethyl)phenyl]-1H-pyrazol-4-yl}propoxy)phenyl]acetic acid], the melting point is 114 to 115 °C. In addition, in series [2], a half-maximal effect (EC50) was put at 5.6 nM.

For the compound `CCOc1nn(-c2ccc(C(F)(F)F)cn2)cc1CCCOc1cccc(CC(=O)O)c1F` [Example 186, [3-(3-{3-ethoxy-1-[5-(trifluoromethyl)-2-pyridyl]-1H-pyrazol-4-yl}propoxy)-2-fluorophenyl]acetic acid], the melting point is 120 to 121 °C. Further, in series [2], the EC50 was determined as 1.9 nM.

As to `COc1cccc(CC(=O)O)c1OCCCc1cn(-c2ccc(C(F)(F)F)cn2)nc1-c1ccccc1` [Example 196], the melting point was in the range of 134 to 135 °C. In addition, it took 42 nM to reach a half-maximal effect in series [1] (EC50).

As to `CCOc1ccc(CC(=O)O)cc1OCCCc1cn(-c2ccc(C(F)(F)F)cn2)nc1C(C)C` [Example 200, [4-ethoxy-3-(3-{3-isopropyl-1-[5-(trifluoromethyl)-2-pyridyl]-1H-pyrazol-4-yl}propoxy)phenyl]acetic acid], the melting point is 116 to 117 °C. Further, the EC50 in series [2] was found to be 5.9 nM.

Compound `CCCc1nn(-c2ccc(C(F)(F)F)cn2)cc1CCCOc1cc(CC(=O)O)ccc1OCC` [Example 204, [4-ethoxy-3-(3-{3-propyl-1-[5-(trifluoromethyl)-2-pyridyl]-1H-pyrazol-4-yl}propoxy)phenyl]acetic acid] showed a melting point of 124 to 125 °C. The compound also had an EC50 in series [2] of 4.6 nM.

`CCCc1cn(CC(=O)O)nc1OCCCc1cn(-c2ccc(C(F)(F)F)cn2)nc1OCC` [Example 255, [3-(3-{3-ethoxy-1-[5-(trifluoromethyl)-2-pyridyl]-1H-pyrazol-4-yl}propoxy)-4-propyl-1H-pyrazol-1-yl]acetic acid] displayed a melting point of 134 to 135 °C. The compound further came in with an EC50 in series [2] of 9.5 nM.

Compound `CCCc1nn(-c2ccc(C(F)(F)F)cn2)cc1CCCOc1cccc(CC(=O)O)c1F` [Example 258, [2-fluoro-3-(3-{3-propyl-1-[5-(trifluoromethyl)-2-pyridyl]-1H-pyrazol-4-yl}propoxy)phenyl]acetic acid] registered a melting point of 109 to 110 °C. For the same compound, in series [2], a half-maximal response (EC50) required 5.5 nM.

Compound `COc1cccc(CC(=O)O)c1OCCCc1cn(-c2ccc(C#N)cn2)nc1C(C)C` [Example 271, (2-{3-[1-(5-cyano-2-pyridyl)-3-isopropyl-1H-pyrazol-4-yl]propoxy}-3-methoxyphenyl)acetic acid] showed an EC50 in series [1] of 30 nM.

Take `COc1cc(CC(=O)O)ccc1OCCCc1cn(-c2ccc(C(F)(F)F)cn2)nc1C(C)C` [Example 278, [3-methoxy-4-(3-{1-[5-(trifluoromethyl)-2-pyridyl]-3-isopropyl-1H-pyrazol-4-yl}propoxy)phenyl]acetic acid]: the melting point lay within 134 to 135 °C. The compound further gave an EC50 in series [2] of 6 nM.

In turn, `COc1cc(CCC(=O)O)ccc1OCCCc1cn(-c2ccc(C(F)(F)F)cn2)nc1C(C)C` [Example 279, 3-[3-methoxy-4-(3-{1-[5-(trifluoromethyl)-2-pyridyl]-3-isopropyl-1H-pyrazol-4-yl}propoxy)phenyl]propanoic acid] registered a melting point of 118 to 119 °C. This compound also had an EC50 in series [2] of 5.1 nM.
